This passage reports IC50 results from patent US20240228535A1 (priority 2022, published 2024).

The experiment has as its target SARS2 coronavirus 3CL protease (Severe acute respiratory syndrome coronavirus 2, UniProt P0DTD1). Kind of experiment: biochemical. The conditions noted are these: 5 nM enzyme, 30 min pre-incubation with compound, 15 μM peptide substrate, 4 h at room temperature; read-out: FRET Potency (nM); IC50 values in the SARS2 3CLPro FRET assay.
As for `CNC(=O)C(=O)[C@H](C[C@@H]1C[C@@H](C)NC1=O)NC(=O)c1cc(Cl)ccc1NC(=O)OC1CC1(F)F` (stereo partly drawn) [Example 172, (2,2-difluorocyclopropyl) N-[4-chloro-2-[(1S)-3-(methylamino)-1-[[(3S,5R)-5-methyl-2-oxo-pyrrolidin-3-yl]methyl]-2,3-dioxo-propyl]carbamoyl]phenyl] carbamate], the IC50 stood at 3.7 nM.
In the case of `CNC(=O)C(=O)[C@H](C[C@@H]1CCNC1=O)NC(=O)c1cc(C(F)(F)F)ccc1NC(=O)C1(C(F)(F)F)CC1` [Example 95, N-[(1S)-3-(methylamino)-2,3-dioxo-1-[[(3S)-2-oxopyrrolidin-3-yl]methyl]propyl]-5-(trifluoromethyl)-2-[[1-(trifluoromethyl)cyclopropane-carbonyl]amino]benzamide] it was 44.7 nM; in that of `CNC(=O)C(=O)[C@H](C[C@@H]1C[C@@H](C)NC1=O)NC(=O)c1cc(Cl)ccc1NC(=O)C1CC1(F)F` (single isomer, unassigned) [Example 14], 46.4 nM.
As for `C[C@@H]1C[C@@H](C[C@H](NC(=O)c2cc(Cl)ccc2NC(=O)C23CC(F)(C2)C3)C(=O)C(=O)NC2CC2)C(=O)N1` [Example 54, N-[4-chloro-2-[[(1S)-3-(cyclopropylamino)-1-[[(3S,5R)-5-methyl-2-oxo-pyrrolidin-3-yl]methyl]-2,3-dioxo-propyl]carbamoyl]phenyl]-3-fluoro-bicyclo[1.1.1]pentane-1-carboxamide], the figure is 8.2 nM; as for `[2H]C([2H])([2H])OC(=O)Nc1ccc(Cl)cc1C(=O)N[C@@H](C[C@@H]1CCNC1=O)C(=O)C(=O)NC1CC1` [Example 124, trideuteriomethyl N-[4-chloro-2-[[(1S)-3-(cyclopropylamino)-2,3-dioxo-1-[[(3S)-2-oxopyrrolidin-3-yl]methyl]propyl]carbamoyl]phenyl]carbamate], 8.2 nM; as for `COC(=O)Nc1ccc(Cl)cc1C(=O)N[C@@H](C[C@@H]1C[C@@H](C)NC1=O)C(=O)C(=O)NC1CC1` [Example 101, methyl N-[4-chloro-2-[(1S)-3-(cyclopropylamino)-1-[[(3S,5R)-5-methyl-2-oxo-pyrrolidin-3-yl]methyl]-2,3-dioxo-propyl]carbamoyl]phenyl] carbamate], 7.8 nM.
As for `CNC(=O)C(=O)[C@H](C[C@@H]1C[C@@H](C)NC1=O)NC(=O)c1cc(C#N)ccc1NC(=O)OC1CC1` [Example 131, cyclopropyl N-[4-cyano-2-[[(1S)-3-(methylamino)-1-[[(3S,5R)-5-methyl-2-oxo-pyrrolidin-3-yl]methyl]-2,3-dioxo-propyl]carbamoyl]phenyl] carbamate], the figure is 36.5 nM.
As for `O=C(NC1CC1)C(=O)[C@H](C[C@@H]1CCNC1=O)NC(=O)c1cc(Cl)ccc1NC(=O)[C@H]1CC1(F)F` [Example 168], the IC50 worked out at 12 nM.
In the case of `CNC(=O)C(=O)[C@H](C[C@@H]1C[C@@H](C)NC1=O)NC(=O)c1cc(F)ccc1NC(=O)c1ccnc(C(F)(F)F)c1` [Example 207, N-[4-fluoro-2-[[(1S)-3-(methylamino)-1-[[(3S,5R)-5-methyl-2-oxo-pyrrolidin-3-yl]methyl]-2,3-dioxo-propyl]carbamoyl]phenyl]-2-(trifluoromethyl)pyridine-4-carboxamide] it was 11.4 nM; in that of `CNC(=O)C(=O)[C@H](C[C@@H]1C[C@@H](C)NC1=O)NC(=O)c1cc(Cl)c(F)cc1NC(=O)OC` [Example 132, methyl N-[4-chloro-5-fluoro-2-[[(1S)-3-(methylamino)-1-[[(3S,5R)-5-methyl-2-oxo-pyrrolidin-3-yl]methyl]-2,3-dioxo-propyl]carbamoyl]phenyl] carbamate], 13.8 nM; in that of `C[C@@H]1C[C@@H](C[C@H](NC(=O)c2cc(Cl)ccc2NC(=O)c2cccc(F)c2)C(=O)C(=O)NC2CC2)C(=O)N1` [Example 73, 5-chloro-N-[(1S)-3-(cyclopropylamino)-1-[[(3S,5R)-5-methyl-2-oxo-pyrrolidin-3-yl]methyl]-2,3-dioxo-propyl]-2-[(3-fluorobenzoyl)amino] benzamide], 6.2 nM.
As for `CNC(=O)C(=O)[C@H](C[C@@H]1CCNC1=O)NC(=O)c1cc(Cl)ccc1NC(=O)C(C)(C)C` [Example 126, 5-chloro-2-(2,2-dimethylpropanoylamino)-N-[(1S)-3-(methylamino)-2,3-dioxo-1-[[(3S)-2-oxopyrrolidin-3-yl]methyl]propyl]benzamide], the figure is 3.8 nM; as for `CNC(=O)C(=O)[C@H](C[C@@H]1C[C@@H](C)NC1=O)NC(=O)c1cc(Cl)ccc1NC(=O)OCC1CCCC(F)(F)C1` (stereo partly drawn) [Example 218, (3,3-difluorocyclohexyl)methyl N-[4-chloro-2-[[(1S)-3-(methylamino)-1-[[(3S,5R)-5-methyl-2-oxo-pyrrolidin-3-yl]methyl]-2,3-dioxo-propyl]carbamoyl]phenyl] carbamate], 6.8 nM.
In the case of `CNC(=O)C(=O)[C@H](C[C@@H]1CCNC1=O)NC(=O)c1cc(F)ccc1NC(=O)c1ccnc(C(F)(F)F)c1` [Example 196, N-[4-fluoro-2-[[(1S)-3-(methylamino)-2,3-dioxo-1-[[(3S)-2-oxopyrrolidin-3-yl]methyl]propyl]carbamoyl]phenyl]-2-(trifluoromethyl)pyridine-4-carboxamide] it was 7.6 nM; in that of `C[C@@H]1C[C@@H](C[C@H](NC(=O)c2cc(Cl)cnc2NC(=O)C23CC(F)(C2)C3)C(=O)C(=O)NC2CC2)C(=O)N1` [Example 27, 5-chloro-N-[(1S)-3-(cyclopropylamino)-1-[[(3S,5R)-5-methyl-2-oxo-pyrrolidin-3-yl]methyl]-2,3-dioxo-propyl]-2-[(3-fluorobicyclo[1.1.1]pentane-1-carbonyl)amino]pyridine-3-carboxamide], 13.6 nM; in that of `O=C(NC1CC1)C(=O)[C@H](C[C@@H]1CCNC1=O)NC(=O)c1cc(Cl)c(F)cc1NC(=O)c1cncc(C(F)(F)F)c1` [Example 79], 11.3 nM.
In the case of `C[C@@H]1C[C@@H](C[C@H](NC(=O)c2cc(Cl)ccc2NC(=O)CC(F)(F)F)C(=O)C(=O)NC2CC2)C(=O)N1` [Example 42, 5-chloro-N-[(1S)-3-(cyclopropylamino)-1-[[(3S,5R)-5-methyl-2-oxo-pyrrolidin-3-yl]methyl]-2,3-dioxo-propyl]-2-(3,3,3-trifluoropropanoylamino) benzamide], the IC50 was determined as 9.8 nM.
For the compound `CNC(=O)C(=O)[C@H](C[C@@H]1C[C@@H](C)NC1=O)NC(=O)c1cc(F)c(F)cc1NC(=O)OC` [Example 120, methyl N-[4,5-difluoro-2-[[(1S)-3-(methylamino)-1-[[(3S,5R)-5-methyl-2-oxo-pyrrolidin-3-yl]methyl]-2,3-dioxo-propyl]carbamoyl]phenyl] carbamate], the IC50 stood at 11.1 nM.
Regarding `CNC(=O)C(=O)[C@H](C[C@@H]1C[C@@H](C)NC1=O)NC(=O)c1cc(Cl)ccc1NC(=O)C1(C(F)(F)F)CC1` [Example 34, 5-chloro-N-[(1S)-3-(methylamino)-1-[[(3S,5R)-5-methyl-2-oxo-pyrrolidin-3-yl]methyl]-2,3-dioxo-propyl]-2-[[1-(trifluoromethyl)cyclopropane-carbonyl]amino]benzamide], the IC50 was 11.2 nM.
As for `C[C@@H]1C[C@@H](C[C@H](NC(=O)c2cc(F)c(F)cc2NC(=O)c2ccnc(C(F)(F)F)c2)C(=O)C(=O)NC2CC2)C(=O)N1` [Example 49, N-[2-[[(1S)-3-(cyclopropylamino)-1-[[(3S,5R)-5-methyl-2-oxo-pyrrolidin-3-yl]methyl]-2,3-dioxo-propyl]carbamoyl]-4,5-difluoro-phenyl]-2-(trifluoromethyl)pyridine-4-carboxamide], the figure is 8.8 nM.
As for `C[C@@H]1C[C@@H](C[C@H](NC(=O)c2cc(Cl)ccc2NC(=O)C2CC2C(F)(F)F)C(=O)C(=O)NC2CC2)C(=O)N1` (stereo partly drawn) [Example 97, 5-chloro-N-[(1S)-3-(cyclopropylamino)-1-[[(3S,5R)-5-methyl-2-oxo-pyrrolidin-3-yl]methyl]-2,3-dioxo-propyl]-2-[[2-(trifluoromethyl)cyclopropane-carbonyl]amino]benzamide], the figure is 7.7 nM; as for `C[C@@H]1C[C@@H](C[C@H](NC(=O)c2cc(Cl)ccc2NC(=O)CCC(F)(F)F)C(=O)C(=O)NC2CC2)C(=O)N1` [Example 3, 5-chloro-N—((S)-4-(cyclopropylamino)-1-((3S,5R)-5-methyl-2-oxopyrrolidin-3-yl)-3,4-dioxobutan-2-yl)-2-(4,4,4-trifluorobutanamido)benzamide], 6.9 nM; as for `C[C@@H]1C[C@@H](C[C@H](NC(=O)c2cc(Cl)ccc2NC(=O)OC2CC2)C(=O)C(=O)NC2CC2)C(=O)N1` [Example 160, cyclopropyl N-[4-chloro-2-[[(1S)-3-(cyclopropylamino)-1-[[(3S,5R)-5-methyl-2-oxo-pyrrolidin-3-yl]methyl]-2,3-dioxo-propyl]carbamoyl]phenyl] carbamate], 8.8 nM.
As for `CNC(=O)C(=O)[C@H](C[C@@H]1CCNC1=O)NC(=O)c1cc(Cl)ccc1NC(=O)OCC(F)(F)F` [Example 163, 2,2,2-trifluoroethyl N-[4-chloro-2-[[(1S)-3-(methylamino)-2,3-dioxo-1-[[(3S)-2-oxopyrrolidin-3-yl]methyl]propyl]carbamoyl]phenyl]carbamate], the figure is 8.6 nM.
`CNC(=O)C(=O)[C@H](C[C@@H]1C[C@@H](C)NC1=O)NC(=O)c1cc(Cl)c(Cl)cc1NC(=O)OC` [Example 144, methyl N-[4,5-dichloro-2-[[(1S)-3-(methylamino)-1-[[(3S,5R)-5-methyl-2-oxo-pyrrolidin-3-yl]methyl]-2,3-dioxo-propyl]carbamoyl]phenyl] carbamate]: the IC50 came out at 5.3 nM.
For `CNC(=O)C(=O)[C@H](C[C@@H]1C[C@@H](C)NC1=O)NC(=O)c1cc(Cl)ccc1NC(=O)OC(C)C` [Example 31, isopropyl N-[4-chloro-2-[[(1S)-3-(methylamino)-1-[[(3S,5R)-5-methyl-2-oxo-pyrrolidin-3-yl]methyl]-2,3-dioxo-propyl]carbamoyl]phenyl] carbamate], the IC50 came to 12.4 nM.
